Where a SMILES comes first, the peptide text is derived from it. [ ]: non-standard residue; d: D form.
Tested on: MDA-MB-231 cells
Format: cell-based, human
Conditions: 10 µM and 20 µM, 24 h, MTT, n = 3
Experimental: The MDA-MB-231 cell line was obtained from ATCC (Kind gift from Dr. Annapoorni Rangarajan, Indian Institute of Science, Bengaluru, Karnataka, India) and tested negative for mycoplasma contamination. Cells were cultured in DMEM (Gibco, 11965-092) supplemented with 10% FBS (Thermo Fisher Scientific, 10270-106) and Penicillin (100 Units/mL) /Streptomycin (100 µg/mL) (Thermo Fisher Scientific, 15070-063). […] Cell proliferation was measured 24 h after the addition of Peptide/ DDM using MTT assay (3-(4,5-dimethylthiazol-2-yl)-2,5-diphenyltetrazolium bromide, M6494, Thermo Fischer Scientific). […] The purple-colored formazan crystals were dissolved by adding 100 µL DMSO (D5879, Sigma Aldrich), and the absorbance at 570 nm was measured using a plate reader (EMax plus microplate reader). […]
Immunofluorescence (IF) images were analyzed to assess the impact of different treatments on cell membrane integrity. […] We evaluated a t least 100 cells for each group - Control, DDM-treated cells and peptide-treated cells- with independent analysis done by a student blinded to the groups' identity . […]
indicating a loss of cell membrane integrity. This categorization provided a clear and systematic approach to quantify the effects of various treatments on cell membrane integrity. […]

CC[C@@H](C)[C@@H](NC(=O)[C@H](N)CCSC)C(=O)N[C@H](CC(=O)O)C(=O)N[C@H](CCC(N)=O)C(=O)N[C@@H](C(=O)N[C@@H](C(=O)N[C@H](CCC(=O)O)C(=O)N[C@@H](C(=O)N[C@H](Cc1ccccc1)C(=O)NCC(=O)N[C@H](CCC(N)=O)C(=O)N[C@H](CC(C)C)C(=O)NCC(=O)N[C@@H](C(=O)N[C@H](Cc1ccccc1)C(=O)N[C@H](CC(C)C)C(=O)NCC(=O)NCC(=O)N[C@H](Cc1ccccc1)C(=O)NCC(=O)N[C@H](CC(N)=O)C(=O)N[C@@H](C(=O)N[C@H](Cc1ccccc1)C(=O)N[C@H](CCCCN)C(=O)NCC(=O)N[C@H](CC(C)C)C(=O)N[C@H](CCCCN)C(=O)N[C@H](CC(=O)O)C(=O)N[C@@H](C(=O)N[C@@H](C(=O)N[C@H](CCC(=O)O)C(=O)N[C@@H](C(=O)N[C@@H](C(=O)N[C@@H](C(=O)N[C@H](CCCCN)C(=O)N[C@H](Cc1c[nH]c2ccccc12)C(=O)N[C@@H](C(=O)N[C@H](C)C(=O)N[C@H](C)C(=O)N[C@H](CCCCN)C(=O)O)[C@H](C)O)C(C)C)[C@H](C)CC)[C@H](C)O)[C@H](C)CC)C(C)C)[C@H](C)CC)[C@H](C)O)[C@H](C)CC)[C@H](C)O)[C@H](C)CC [DpPorA] (H-[dM][dI][dD][dQ][dI][dT][dE][dI][dF]G[dQ][dL]G[dT][dF][dL]GG[dF]G[dN][dI][dF][dK]G[dL][dK][dD][dV][dI][dE][dT][dI][dV][dK][dW][dT][dA][dA][dK]-OH; N-terminus and C-terminus assumed)
change in cell viability: no significant change in viability
